This is an account of results in article PMC11062922 (Nature Chemical Biology, 2023).

For one assay, the target named is T1, NUAK1 (Homo sapiens, UniProt O60285).
T1 construct: to maximize the representation of endogenous proteins; endogenous in cells
T1 sequence (O60285 1-661): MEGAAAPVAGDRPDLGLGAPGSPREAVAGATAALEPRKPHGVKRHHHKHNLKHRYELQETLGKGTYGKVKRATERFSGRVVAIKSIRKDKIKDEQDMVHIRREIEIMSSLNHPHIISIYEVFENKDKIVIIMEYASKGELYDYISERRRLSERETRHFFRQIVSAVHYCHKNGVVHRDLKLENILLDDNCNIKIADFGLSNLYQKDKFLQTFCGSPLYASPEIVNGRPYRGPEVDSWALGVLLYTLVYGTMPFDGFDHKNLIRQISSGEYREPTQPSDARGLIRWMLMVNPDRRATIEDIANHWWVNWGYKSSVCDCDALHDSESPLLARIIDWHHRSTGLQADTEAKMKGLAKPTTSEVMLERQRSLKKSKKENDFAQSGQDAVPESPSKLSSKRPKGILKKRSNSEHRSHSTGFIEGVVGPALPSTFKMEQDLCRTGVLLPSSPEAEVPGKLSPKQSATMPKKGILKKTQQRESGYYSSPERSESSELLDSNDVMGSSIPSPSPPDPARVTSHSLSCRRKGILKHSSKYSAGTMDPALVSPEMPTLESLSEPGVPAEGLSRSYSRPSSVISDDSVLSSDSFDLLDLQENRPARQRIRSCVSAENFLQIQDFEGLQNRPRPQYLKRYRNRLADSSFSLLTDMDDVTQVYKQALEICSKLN
Nature of the assay: Kinobeads two-dose competition binding: NUAK1. The conditions noted are these: for CATDS: target NUAK1. The text has this: (§1) Briefly, Kinobeads comprise seven broad-spectrum small molecule kinase inhibitors immobilized on Sepharose beads. […]. Compounds of interest are set to compete for target protein binding with Kinobeads in the lysate and the amount of a given protein bound to Kinobeads in the presence of a compound can be quantified relative to a dimethylsulfoxide (DMSO) vehicle control by label-free mass spectrometry. This assay measures the physical interaction of a compound with thousands of endogenous proteins in parallel and, when systematically increasing the concentration of competitor, enables the calculation of an apparent interaction constant ( Kdapp ) for each compound and protein.
(§2) Kinobeads pulldown experiments were performed as described previously[13],[14],[17] with minor modification. […] The protein concentration was adjusted to 5 mg ml^−1. Kinase inhibitors were spiked into 0.5 ml of cell lysate at final concentrations of 100 and 1,000 nM (or DMSO, 0.3, 1, 3, 10, 30, 100, 300 and 1,000 nM for full dose experiments). […] Lysates were incubated for 45 min at 4 °C. Subsequently, lysates were incubated with Kinobeads ε (17.5 µl of settled beads) for 30 min at 4 °C. To assess the degree of protein depletion from the lysates by Kinobeads, the flow through of the DMSO control was recovered for a pulldown of pulldown experiment where the lysate was incubated a second time with fresh Kinobeads. Beads were washed in three steps with buffer containing 0.4%, 0.2% and no IGEPAL. Bound proteins were reduced with 50 mM DTT in 8 M Urea, 40 mM Tris-HCl pH 7.4 for 30 min at room temperature. After alkylation with 55 mM chloroacetamide, the urea concentration was reduced to 1–2 M and proteins were digested with trypsin. Acidified peptides were desalted and concentrated using SepPak tC18 µEluation plates (Waters). Samples were frozen, dried by vacuum centrifugation and stored at −20 °C.
(§3) Each kinase inhibitor was processed together with all DMSO controls of the same plate. Additionally, each search was supplemented with five high quality DMSO controls for consistent peptide identification and protein grouping. The resultant file (proteinGroups.txt) was used for subsequent filtering, normalization, data visualization and target annotation that was automatically performed by a data processing pipeline built in house that used R (including the ‘drc’ and ‘heatmap’ packages). First, reverse hits, potential contaminants and not quantified proteins in the DMSO control samples were discarded. Protein raw and label-free quantification intensities were normalized to the median DMSO control intensity to obtain relative residual binding intensities for each protein group at every inhibitor concentration and standard deviations of the DMSO control intensity were calculated. IC50 values were estimated based on the following equation IC50=I×100−inhibition/inhibition where [I] is the inhibitor concentration that was used for IC50 calculation and ‘inhibition’ the relative residual binding intensity. […]. Estimated Kdapp values were then calculated by multiplying the estimated IC50 values with a protein-dependent correction factor that was limited to a maximum value of one. The correction factor accounts for the depletion of a target protein from the lysate by Kinobeads. The depletion can be measured by the ratio of the amount of protein captured in two consecutive pulldowns of the same DMSO control lysate. In this study, correction factors were determined in separate experiments using the same lysate mixture and the same bead batch. Correction factors were set to the median of all correction factors. Targets of kinase inhibitors were annotated using the previously published random forest classifier. A training data set was annotated manually. […]

In another assay the target is T2, BMPR2 (Homo sapiens, UniProt Q13873).
T2 construct: to maximize the representation of endogenous proteins; endogenous in cells
T2 sequence (Q13873 27-1038): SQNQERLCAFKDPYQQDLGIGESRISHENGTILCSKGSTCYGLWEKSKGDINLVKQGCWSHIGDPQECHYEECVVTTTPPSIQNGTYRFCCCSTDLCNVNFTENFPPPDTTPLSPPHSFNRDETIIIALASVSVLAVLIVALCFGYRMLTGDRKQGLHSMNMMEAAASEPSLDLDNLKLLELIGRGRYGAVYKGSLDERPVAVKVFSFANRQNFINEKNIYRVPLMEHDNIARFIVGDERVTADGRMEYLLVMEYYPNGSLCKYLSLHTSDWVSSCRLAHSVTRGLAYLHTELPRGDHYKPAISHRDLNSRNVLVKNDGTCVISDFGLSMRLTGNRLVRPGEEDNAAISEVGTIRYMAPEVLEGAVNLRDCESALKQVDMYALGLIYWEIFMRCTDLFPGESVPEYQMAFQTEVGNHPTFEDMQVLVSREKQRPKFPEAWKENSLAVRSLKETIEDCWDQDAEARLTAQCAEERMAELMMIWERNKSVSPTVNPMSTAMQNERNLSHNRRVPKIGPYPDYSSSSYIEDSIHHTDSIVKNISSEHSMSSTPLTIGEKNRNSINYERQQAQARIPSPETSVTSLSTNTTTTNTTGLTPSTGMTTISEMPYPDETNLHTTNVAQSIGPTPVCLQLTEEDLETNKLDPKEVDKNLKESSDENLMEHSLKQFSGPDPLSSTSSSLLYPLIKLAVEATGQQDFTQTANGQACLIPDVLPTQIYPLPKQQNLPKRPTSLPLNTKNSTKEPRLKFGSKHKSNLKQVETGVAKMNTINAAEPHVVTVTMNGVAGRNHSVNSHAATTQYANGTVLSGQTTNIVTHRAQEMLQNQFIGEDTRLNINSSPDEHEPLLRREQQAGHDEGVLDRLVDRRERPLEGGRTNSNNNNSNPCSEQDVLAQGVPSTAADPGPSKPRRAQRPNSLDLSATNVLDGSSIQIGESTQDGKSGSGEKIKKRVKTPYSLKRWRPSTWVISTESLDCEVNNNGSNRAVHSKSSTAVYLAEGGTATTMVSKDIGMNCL
The experiment in a line: Kinobeads two-dose competition binding: BMPR2. To be noted: for CATDS: target BMPR2.
Source text: as §1, §2, §3

In a further assay the target is T3, GSK3B (Homo sapiens, UniProt P49841).
T3 construct: endogenous in cells
The experiment in a line: Kinobeads two-dose competition binding: GSK3B. To be noted: for CATDS: target GSK3B.

Structures are written as SMILES. Where two headings read alike, the source gives them in different places.

T3 sequence (P49841 whole entry): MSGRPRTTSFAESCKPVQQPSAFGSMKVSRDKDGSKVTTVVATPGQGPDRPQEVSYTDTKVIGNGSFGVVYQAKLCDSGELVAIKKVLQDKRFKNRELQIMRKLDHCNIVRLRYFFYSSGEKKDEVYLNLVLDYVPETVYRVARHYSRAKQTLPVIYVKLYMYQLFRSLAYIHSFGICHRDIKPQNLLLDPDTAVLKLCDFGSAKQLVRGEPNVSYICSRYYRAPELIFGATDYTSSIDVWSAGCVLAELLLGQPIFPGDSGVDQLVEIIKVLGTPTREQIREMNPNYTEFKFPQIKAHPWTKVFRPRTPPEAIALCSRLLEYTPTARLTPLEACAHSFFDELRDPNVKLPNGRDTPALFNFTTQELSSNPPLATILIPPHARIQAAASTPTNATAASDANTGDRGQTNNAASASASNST

On to `CCN1CCN(Cc2ccc(Nc3ncc(F)c(-c4cc(F)c5nc(C)n(C(C)C)c5c4)n3)nc2)CC1` [Abemaciclib], for which the CATDS on NUAK1 and on BMPR2 was 0 each time.

Consider `CC(C)N1CC(=O)N(C)c2cnc(Nc3cccc(S(=O)(=O)CCN4CCOCC4)c3)nc21` [BI00009348], for which the potency estimated from few doses was 0.783 µM on GSK3B (Kinobeads two-dose, Drugmatrix - all 2, read-out: apparent Kd GSK3B); over 1 µM at NUAK1 (Kinobeads two-dose, Drugmatrix - all 2, read-out: apparent Kd NUAK1); 0.646 µM on BMPR2 (Kinobeads two-dose, Drugmatrix - all 2, read-out: apparent Kd BMPR2).

On to `N#CC1(c2ccc(NC(=O)c3cccnc3NCc3ccncc3)cc2)CCCC1` [Apatinib], for which the CATDS at GSK3B, at NUAK1 and on BMPR2 was 0 throughout.

On to `CN(C)C/C=C/C(=O)Nc1cc2c(Nc3ccc(F)c(Cl)c3)ncnc2cc1O[C@H]1CCOC1` [Afatinib], for which the CATDS on GSK3B, at NUAK1 and on BMPR2 was 0 in each case.

As to `C[C@]12O[C@H](C[C@]1(O)CO)n1c3ccccc3c3c4c(c5c6ccccc6n2c5c31)CNC4=O` [Lestaurtinib], the potency estimated from few doses at GSK3B (read-out: Lestaurtinib Drugmatrix value, Gene Name GSK3B) was 0.295 µM.

For `Nc1ncnc2[nH]c(-c3ccccc3)nc12` [AH5015_KCGS], the CATDS at GSK3B is given as 0.07826; on NUAK1, 0; on BMPR2, 0.

`CCc1cc2c(cc1N1CCC(N3CCOCC3)CC1)C(C)(C)c1[nH]c3cc(C#N)ccc3c1C2=O` [Alectinib]: the CATDS on GSK3B, at NUAK1 and at BMPR2 was 0 each time.
